Patent publication US11180468B2, “Prodrugs of urolithins and uses thereof” (Amazentis SA, priority 2013, dated 2021)
Where a name gives a salt, the structure may show the parent alone. Read-outs that look alike come from different tables or passages of the source.

Tests used:
[1] = Stability (degradation) in aqueous phosphate buffer solution at room temperature, HPLC percentage remaining; format: physicochemical
Experimental: (§1) All HPLC analyses were carried out on a 5 μL sample on an Agilent 1100 series HPLC system including HPLC pump, auto injector, column oven and PDA detector with a Waters XBridgeC18, 50×2.1 mm, 5 μm column at a temperature of 40° C. and a flow rate of 0.4 mL/min using the following gradient: […]
The stability of the compounds in aqueous solution at room temperature was measured by dissolving the compounds in phosphate buffer of a pH chosen from 2, 3, 4, and/or 5. The compounds with low water solubility were first dissolved in DMSO and then diluted with phosphate buffer to contain 10% of DMSO. The samples were analysed by HPLC, as described above, at time 0 and several times thereafter. The peak area of the samples at these times were compared to the areas at t=0 to calculate the percentage remaining of the starting compound.
The solutions were prepared for each of the compounds as set out in Table 8. Plots of the percentage remaining of starting substance over time for each of the compounds measured are given in FIGS. 1-6, and t50 values (time taken for 50% of the starting compound to degrade) are given in Table 8.

[2] = Solubility in phosphate buffer at pH 4 at room temperature, filtered solution analysed by HPLC against DMSO standard; format: physicochemical; conditions: phosphate buffer pH 4, room temperature; for solubility: aqueous buffer, thermodynamic from solid
Experimental: as §1
A maximum amount of each compound was dissolved in 400 μL of phosphate buffer at pH 4 at room temperature in a filter vial (Agilent 0.45 μm PP Mini-UniPrep™). The filtered solutions were analysed by HPLC as described above. The peak area of the substance dissolved in buffer was compared to that of a standard prepared in DMSO.

[3] = Oral bioavailability: plasma concentration of Urolithin after oral administration to rats; format: in vivo, Sprague-Dawley rats; conditions: rat
Experimental: The oral bioavailability of compounds of the invention can be assessed by orally administering a dose of compound in solution to Sprague-Dawley rats. Blood samples are collected from each rat before administration, and at intervals up to 24 hours thereafter. The blood samples are analysed for the plasma concentration of Urolithin. […] The Urolithin A was still present in the blood at a concentration of 2.6 mg/ml at 12 hours following administration in the case of the saline solution, and 1.30 mg/ml in the case of the DMSO/water solution. The Cmax and AUC of Urolithin A were higher when the compound of Example 4 was orally administered than when Urolithin A was orally administered.

[4] = Urolithin A compounds, molar basis, read-out: Solubility (mM/L)
[5] = Urolithin A compounds, read-out: Solubility
[6] = Urolithin B compounds, molar basis, read-out: Solubility (mM/L)
[7] = Urolithin B compounds, read-out: Solubility

CC(C)C[C@H](N)C(=O)Oc1ccc2c(c1)oc(=O)c1ccccc12 [Example 5, 6-Oxo-6H-benzo[c]chromen-3-yl (2S)-2-amino-4-methylpentanoate hydrochloride]
Degradation rate compared in words ([1]; at pH 2 and pH 5): degrades more slowly than Example 1
t50 (mins), time taken for 50% of the starting compound to degrade ([1]; pH 2, 0.2 mg in 1 mL, FIG. 6): 240 min
Increase in the rate of degradation when the pH of the solution is increased from 2 to 5 ([1]; pH 2 to pH 5): two-fold
t50 (mins), time taken for 50% of the starting compound to degrade ([1]; pH 5, 0.3 mg in 1 mL, FIG. 6): 125 min

NCC(=O)Oc1ccc2c(c1)oc(=O)c1cc(OC(=O)CN)ccc12 [Example 1, 8-[(2-Aminoacetyl)oxy]-6-oxo-6H-benzo[c]chromen-3-yl 2-aminoacetate dihydrochloride]
Degradation rate compared in words ([1]; at pH 4): degrades more slowly than Example 2
t50 (mins), time taken for 50% of the starting compound to degrade ([1]; pH 2, 0.16 mg in 1 mL, FIG. 5): 81 min
t50 (mins), time taken for 50% of the starting compound to degrade ([1]; pH 4, 0.77 mg in 1 mL, FIG. 1): 74 min
t50 (mins), time taken for 50% of the starting compound to degrade ([1]; pH 5, 0.16 mg in 1 mL, FIG. 5): 27 min
solubility [2, 4]: 5.64 mM
solubility [2, 5]: 1930 µg/mL
Solubility compared in words [2]: more soluble than the Glycine urolithin B compound (Example 3)

O=c1oc2cc(O)ccc2c2ccccc12 [Urolithin B, reference compound]
solubility [2, 6]: 0.00127 mM
solubility [2, 7]: 0.27 µg/mL

CC(C)CC(N)C(=O)Oc1ccc2c(c1)oc(=O)c1cc(OC(=O)[C@H](N)CC(C)C)ccc12 (stereo in doubt) [Example 4, 8-{[(2R)-2-Amino-4-methylpentanoyl]oxy}-6-oxo-6H-benzo[c]chromen-3-yl (2S)-2-amino-4-methylpentanoate dihydrochloride]
AUC of Urolithin A compared with oral administration of Urolithin A [3]: higher
Cmax of Urolithin A compared with oral administration of Urolithin A [3]: higher
Delivery of Urolithin A into the blood following oral administration, compared with oral Urolithin A [3]: at least as effectively
Degradation rate compared in words ([1]; at pH 4): degrades more slowly than Example 3
t50 (mins), time taken for 50% of the starting compound to degrade ([1]; pH 4, 0.4 mg in 1 mL, FIG. 4): 405 min
solubility [2, 4]: 4.73 mM
solubility [2, 5]: 2150 µg/mL
Solubility compared in words [2]: particularly soluble compared to the parent compound

NCC(=O)Oc1ccc2c(c1)oc(=O)c1ccccc12 [Example 3, 6-Oxo-6H-benzo[c]chromen-3-yl 2-aminoacetate hydrochloride]
Degradation rate compared in words ([1]; at pH 4): degrades more slowly than Example 1
t50 (mins), time taken for 50% of the starting compound to degrade ([1]; pH 4, 0.31 mg in 1 mL, FIG. 3): 156 min
solubility [2, 6]: 4.94 mM
solubility [2, 7]: 1330 µg/mL

CC(N)C(=O)Oc1ccc2c(c1)oc(=O)c1cc(OC(=O)[C@@H](C)N)ccc12 (stereo in doubt) [Example 2, 8-{[(2R)-2-Aminopropanoyl]oxy}-6-oxo-6H-benzo[c]chromen-3-yl (2S)-2-aminopropanoate dihydrochloride]
t50 (mins), time taken for 50% of the starting compound to degrade ([1]; pH 4, 0.33 mg in 0.66 mL (second time), FIG. 2): 31 min
t50 (mins), time taken for 50% of the starting compound to degrade ([1]; pH 4, 0.72 mg in 0.4 mL, FIG. 2): 56 min
t50 (mins), time taken for 50% of the starting compound to degrade ([1]; pH 4, 0.94 mg in 1.8 mL (first time), FIG. 2): 29 min
solubility [2, 4]: 4.86 mM
solubility [2, 5]: 1800 µg/mL

O=c1oc2cc(O)ccc2c2ccc(O)cc12 [Urolithin A, reference compound]
solubility [2, 4]: 0.00057 mM
solubility [2, 5]: 0.13 µg/mL
